Here are results for three molecules from ChEMBL document CHEMBL5696442, “Discovery of type II inhibitors of TGFβ-activated kinase 1 (TAK1) and mitogen-activated protein kinase kinase kinase kinase 2 (MAP4K2)” (J Med Chem, 2015).

The target in test [1] is Calcium/calmodulin-dependent protein kinase type II subunit delta (Homo sapiens) (UniProt Q13557). The experiment in a line: Inhibition of CaMK2d Lys1 labeling site harbouring IPTGQEYAAKIINTKK in human Huh-7 cells at 1 uM by KiNativ Profiling analysis relative to control. The class given is cell-based.
Chain of Calcium/calmodulin-dependent protein kinase type II subunit delta (Homo sapiens) (Q13557 whole entry): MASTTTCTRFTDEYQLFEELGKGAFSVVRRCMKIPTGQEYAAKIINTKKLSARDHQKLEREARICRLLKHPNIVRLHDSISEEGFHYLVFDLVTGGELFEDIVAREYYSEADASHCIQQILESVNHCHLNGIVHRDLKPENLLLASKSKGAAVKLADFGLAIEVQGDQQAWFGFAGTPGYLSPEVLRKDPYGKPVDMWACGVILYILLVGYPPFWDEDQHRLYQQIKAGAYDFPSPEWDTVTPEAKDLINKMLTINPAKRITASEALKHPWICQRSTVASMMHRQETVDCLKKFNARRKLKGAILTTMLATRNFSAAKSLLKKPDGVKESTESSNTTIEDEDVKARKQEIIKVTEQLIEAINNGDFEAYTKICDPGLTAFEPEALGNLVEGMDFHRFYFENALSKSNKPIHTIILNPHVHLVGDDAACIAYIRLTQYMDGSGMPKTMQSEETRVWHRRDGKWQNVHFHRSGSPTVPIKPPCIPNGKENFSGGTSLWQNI
In test [2] the test system is Tyrosine-protein kinase ABL1 (Homo sapiens), P00519 [F317L]. The experiment in a line: Inhibition of nonphosphorylated ABL1 F317L mutant (unknown origin) at 1 uM by Ambit Kinomescan binding assay relative to control.
In test [3] the target is Atypical kinase COQ8A, mitochondrial (Homo sapiens) (UniProt Q8NI60). The experiment in a line: Inhibition of ADCK3 (unknown origin) at 1 uM by Ambit Kinomescan binding assay relative to control.
For test [4], the target named is RAF proto-oncogene serine/threonine-protein kinase (Homo sapiens, UniProt P04049). The experiment in a line: Inhibition of RAF1 (unknown origin) at 1 uM by Ambit Kinomescan binding assay relative to control.
Chain of RAF proto-oncogene serine/threonine-protein kinase (P04049 whole entry): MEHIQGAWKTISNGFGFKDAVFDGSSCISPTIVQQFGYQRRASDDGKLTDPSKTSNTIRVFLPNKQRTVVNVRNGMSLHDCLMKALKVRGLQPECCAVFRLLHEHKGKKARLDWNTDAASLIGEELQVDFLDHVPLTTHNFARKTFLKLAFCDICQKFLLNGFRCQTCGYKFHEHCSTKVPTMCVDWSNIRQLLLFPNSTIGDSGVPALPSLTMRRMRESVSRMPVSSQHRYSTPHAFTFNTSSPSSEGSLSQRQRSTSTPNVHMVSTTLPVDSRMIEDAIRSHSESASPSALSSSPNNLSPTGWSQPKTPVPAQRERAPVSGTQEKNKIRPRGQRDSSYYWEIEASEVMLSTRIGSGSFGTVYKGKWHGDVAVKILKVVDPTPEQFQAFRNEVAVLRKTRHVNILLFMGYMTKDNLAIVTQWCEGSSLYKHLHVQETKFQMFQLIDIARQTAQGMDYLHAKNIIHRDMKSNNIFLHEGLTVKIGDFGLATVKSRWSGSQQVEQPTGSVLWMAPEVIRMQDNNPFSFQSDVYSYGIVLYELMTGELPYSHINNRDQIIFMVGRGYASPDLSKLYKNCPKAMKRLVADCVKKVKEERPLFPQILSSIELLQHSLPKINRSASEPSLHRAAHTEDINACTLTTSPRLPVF
The target in test [5] is Calcium/calmodulin-dependent protein kinase type II subunit gamma (Homo sapiens) (UniProt Q13555). The experiment in a line: Inhibition of CaMK2g Lys1 labeling site harbouring KTSTQEYAAKIINTKK in human A-375 cells at 5 uM by KiNativ Profiling analysis relative to control. It counts as cell-based.
The target in test [6] is Discoidin domain-containing receptor 2 (Homo sapiens) (UniProt Q16832). The experiment in a line: Inhibition of DDR2 (unknown origin) at 1 uM by Ambit Kinomescan binding assay relative to control; values are per cent of control.
Chain of Discoidin domain-containing receptor 2 (Homo sapiens) (Q16832 whole entry, the tested form may be a part): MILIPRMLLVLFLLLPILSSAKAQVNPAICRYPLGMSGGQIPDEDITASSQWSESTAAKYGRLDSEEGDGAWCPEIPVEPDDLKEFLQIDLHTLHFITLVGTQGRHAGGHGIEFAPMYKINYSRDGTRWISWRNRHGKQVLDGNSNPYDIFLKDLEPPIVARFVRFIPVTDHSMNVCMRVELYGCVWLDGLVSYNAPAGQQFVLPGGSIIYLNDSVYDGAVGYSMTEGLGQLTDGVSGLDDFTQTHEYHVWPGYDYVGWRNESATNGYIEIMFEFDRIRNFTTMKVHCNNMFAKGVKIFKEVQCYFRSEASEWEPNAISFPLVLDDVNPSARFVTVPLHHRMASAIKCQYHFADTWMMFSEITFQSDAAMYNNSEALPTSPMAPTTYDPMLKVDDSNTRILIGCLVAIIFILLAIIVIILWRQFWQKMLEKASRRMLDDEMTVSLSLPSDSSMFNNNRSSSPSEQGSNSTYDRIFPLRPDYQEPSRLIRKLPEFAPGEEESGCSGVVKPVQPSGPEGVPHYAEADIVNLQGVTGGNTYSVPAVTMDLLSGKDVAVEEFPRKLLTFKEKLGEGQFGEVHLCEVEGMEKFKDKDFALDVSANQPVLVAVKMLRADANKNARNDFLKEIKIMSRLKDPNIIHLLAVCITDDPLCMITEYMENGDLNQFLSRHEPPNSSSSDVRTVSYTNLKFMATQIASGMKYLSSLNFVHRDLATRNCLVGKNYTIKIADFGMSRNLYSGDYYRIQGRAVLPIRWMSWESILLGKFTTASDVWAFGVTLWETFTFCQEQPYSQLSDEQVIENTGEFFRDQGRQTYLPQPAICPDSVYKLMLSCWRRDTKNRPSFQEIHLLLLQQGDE
The target of test [7] is Mitogen-activated protein kinase kinase kinase 1 (Homo sapiens) (UniProt Q13233). The experiment in a line: Inhibition of MAP3K1 (unknown origin) at 1 uM by Ambit Kinomescan binding assay relative to control; values are per cent of control.
The target of test [8] is Aurora kinase B (Homo sapiens) (UniProt Q96GD4). The experiment in a line: Inhibition of AURKB (unknown origin) at 10 uM by Ambit Kinomescan binding assay.
Chain of Aurora kinase B (Homo sapiens) (Q96GD4 whole entry): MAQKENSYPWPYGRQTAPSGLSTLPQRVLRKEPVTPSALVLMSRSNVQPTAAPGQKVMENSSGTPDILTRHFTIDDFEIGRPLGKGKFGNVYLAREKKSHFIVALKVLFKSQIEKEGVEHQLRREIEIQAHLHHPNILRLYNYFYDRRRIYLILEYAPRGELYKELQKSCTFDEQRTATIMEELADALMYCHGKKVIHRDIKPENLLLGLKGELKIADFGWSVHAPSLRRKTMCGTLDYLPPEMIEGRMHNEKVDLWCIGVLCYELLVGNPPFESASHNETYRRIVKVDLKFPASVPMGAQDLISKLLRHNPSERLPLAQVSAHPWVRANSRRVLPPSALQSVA
Test [9] addresses Mitogen-activated protein kinase 9 (Homo sapiens, UniProt P45984). The experiment in a line: Inhibition of JNK2 (unknown origin) at 10 uM by Ambit Kinomescan binding assay relative to control.
Test [10] addresses Serine/threonine-protein kinase 26 (Homo sapiens) (UniProt Q9P289). The experiment in a line: Inhibition of MST4 (unknown origin) at 10 uM by Ambit Kinomescan binding assay.
Test [11] addresses Serine/threonine-protein kinase PAK 6 (Homo sapiens) (UniProt Q9NQU5). The experiment in a line: Inhibition of PAK6 (unknown origin) at 10 uM by Ambit Kinomescan binding assay.
The target in test [12] is Phosphatidylinositol 4-phosphate 3-kinase C2 domain-containing subunit beta (Homo sapiens) (UniProt O00750). The experiment in a line: Inhibition of PIK3C2B (unknown origin) at 10 uM by Ambit Kinomescan binding assay.
Chain of Phosphatidylinositol 4-phosphate 3-kinase C2 domain-containing subunit beta (Homo sapiens) (O00750 whole entry, the tested form may be a part): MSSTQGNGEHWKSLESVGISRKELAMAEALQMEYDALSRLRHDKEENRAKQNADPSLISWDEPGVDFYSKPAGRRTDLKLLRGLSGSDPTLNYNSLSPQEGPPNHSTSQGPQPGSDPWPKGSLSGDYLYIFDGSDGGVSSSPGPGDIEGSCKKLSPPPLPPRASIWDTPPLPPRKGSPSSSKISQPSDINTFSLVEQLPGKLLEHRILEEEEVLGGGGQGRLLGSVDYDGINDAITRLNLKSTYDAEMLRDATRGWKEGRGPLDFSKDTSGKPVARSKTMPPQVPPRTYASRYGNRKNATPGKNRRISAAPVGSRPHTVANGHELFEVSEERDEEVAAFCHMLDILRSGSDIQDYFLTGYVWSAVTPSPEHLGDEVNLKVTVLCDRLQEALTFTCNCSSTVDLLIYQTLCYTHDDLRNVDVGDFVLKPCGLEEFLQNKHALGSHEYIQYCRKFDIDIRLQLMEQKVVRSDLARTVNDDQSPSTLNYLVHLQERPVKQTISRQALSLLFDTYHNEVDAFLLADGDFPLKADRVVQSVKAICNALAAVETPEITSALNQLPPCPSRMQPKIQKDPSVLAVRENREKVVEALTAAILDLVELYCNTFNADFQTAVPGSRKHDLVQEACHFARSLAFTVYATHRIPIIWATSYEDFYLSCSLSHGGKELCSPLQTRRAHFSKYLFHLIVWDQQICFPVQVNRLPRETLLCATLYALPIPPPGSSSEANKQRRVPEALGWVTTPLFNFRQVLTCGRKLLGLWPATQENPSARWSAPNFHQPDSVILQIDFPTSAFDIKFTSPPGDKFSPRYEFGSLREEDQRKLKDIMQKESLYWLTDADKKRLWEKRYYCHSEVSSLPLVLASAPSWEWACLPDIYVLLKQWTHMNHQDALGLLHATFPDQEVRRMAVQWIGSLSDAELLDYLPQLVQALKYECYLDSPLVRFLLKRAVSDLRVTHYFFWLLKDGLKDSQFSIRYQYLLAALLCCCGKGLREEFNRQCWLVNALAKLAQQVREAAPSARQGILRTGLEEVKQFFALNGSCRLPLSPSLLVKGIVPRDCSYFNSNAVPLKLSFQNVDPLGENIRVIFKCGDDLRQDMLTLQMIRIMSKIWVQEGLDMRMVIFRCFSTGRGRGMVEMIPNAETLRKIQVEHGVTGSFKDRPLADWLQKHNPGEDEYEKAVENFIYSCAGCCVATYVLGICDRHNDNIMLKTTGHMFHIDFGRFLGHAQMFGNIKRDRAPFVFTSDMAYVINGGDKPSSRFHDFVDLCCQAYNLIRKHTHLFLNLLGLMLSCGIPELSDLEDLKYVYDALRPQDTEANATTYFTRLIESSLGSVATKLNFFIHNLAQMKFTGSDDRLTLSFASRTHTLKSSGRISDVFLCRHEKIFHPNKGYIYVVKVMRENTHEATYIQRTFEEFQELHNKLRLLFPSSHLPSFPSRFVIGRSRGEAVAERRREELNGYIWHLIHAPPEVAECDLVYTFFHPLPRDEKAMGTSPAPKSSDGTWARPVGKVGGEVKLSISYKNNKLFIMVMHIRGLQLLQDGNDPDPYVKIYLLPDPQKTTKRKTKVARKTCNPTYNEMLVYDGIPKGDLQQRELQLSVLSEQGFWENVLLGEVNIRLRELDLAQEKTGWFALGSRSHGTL
Test [13] deals with T1, Serine/threonine-protein kinase Chk1 (Homo sapiens) (UniProt O14757).
T1 sequence (whole entry): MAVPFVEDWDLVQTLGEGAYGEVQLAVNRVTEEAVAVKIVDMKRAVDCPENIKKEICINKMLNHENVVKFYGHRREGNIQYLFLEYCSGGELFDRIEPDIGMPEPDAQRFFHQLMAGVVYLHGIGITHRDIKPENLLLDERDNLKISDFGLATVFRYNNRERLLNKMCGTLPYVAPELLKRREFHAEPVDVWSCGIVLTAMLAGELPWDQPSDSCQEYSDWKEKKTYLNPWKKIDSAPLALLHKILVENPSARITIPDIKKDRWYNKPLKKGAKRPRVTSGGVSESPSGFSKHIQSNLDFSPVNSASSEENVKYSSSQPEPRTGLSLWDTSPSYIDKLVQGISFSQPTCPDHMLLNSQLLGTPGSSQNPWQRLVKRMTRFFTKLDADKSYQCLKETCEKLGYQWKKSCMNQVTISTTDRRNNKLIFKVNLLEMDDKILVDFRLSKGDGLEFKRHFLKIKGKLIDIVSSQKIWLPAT
The experiment in a line: Inhibition of CHK1 Lys2 labeling site harbouring DIKPENLLLDERDNLK in human A-375 cells at 5 uM by KiNativ Profiling analysis relative to control. The class given is cell-based.

Test [14] deals with T2, Atrial natriuretic peptide receptor 2 (Homo sapiens) (UniProt P20594).
T2 sequence (whole entry): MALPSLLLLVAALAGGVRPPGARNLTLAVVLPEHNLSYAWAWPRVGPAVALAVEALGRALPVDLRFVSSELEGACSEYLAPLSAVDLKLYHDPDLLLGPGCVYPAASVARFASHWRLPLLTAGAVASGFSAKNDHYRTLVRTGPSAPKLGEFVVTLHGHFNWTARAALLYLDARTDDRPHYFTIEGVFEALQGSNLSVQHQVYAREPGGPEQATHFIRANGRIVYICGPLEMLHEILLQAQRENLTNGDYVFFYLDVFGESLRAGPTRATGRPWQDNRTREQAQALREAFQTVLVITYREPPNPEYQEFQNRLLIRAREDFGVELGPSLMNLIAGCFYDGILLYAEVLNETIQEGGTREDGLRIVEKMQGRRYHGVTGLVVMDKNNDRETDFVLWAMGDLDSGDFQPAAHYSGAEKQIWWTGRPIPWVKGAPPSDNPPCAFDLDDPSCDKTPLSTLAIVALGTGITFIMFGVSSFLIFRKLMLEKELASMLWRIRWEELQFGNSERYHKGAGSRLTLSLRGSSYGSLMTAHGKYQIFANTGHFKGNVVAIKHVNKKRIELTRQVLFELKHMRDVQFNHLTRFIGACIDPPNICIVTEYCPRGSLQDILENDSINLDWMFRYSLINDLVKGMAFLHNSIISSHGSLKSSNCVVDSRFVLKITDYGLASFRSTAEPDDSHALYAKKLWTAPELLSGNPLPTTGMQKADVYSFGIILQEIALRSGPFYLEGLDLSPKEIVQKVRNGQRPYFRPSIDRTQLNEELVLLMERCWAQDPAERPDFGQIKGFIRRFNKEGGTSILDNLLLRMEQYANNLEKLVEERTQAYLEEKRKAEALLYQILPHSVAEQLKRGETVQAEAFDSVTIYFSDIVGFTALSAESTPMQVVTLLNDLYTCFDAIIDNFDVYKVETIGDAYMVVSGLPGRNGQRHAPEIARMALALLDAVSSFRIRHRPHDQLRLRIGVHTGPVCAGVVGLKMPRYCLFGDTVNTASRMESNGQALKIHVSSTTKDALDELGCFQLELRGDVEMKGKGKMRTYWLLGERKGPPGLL
The experiment in a line: Inhibition of ANPb Lys2 labeling site in human A-375 cells at 0.5 uM by KiNativ Profiling analysis relative to control. The class given is cell-based.

Test [15] is described as follows: Inhibition of NEK6/7 K2 labeling site harbouring VMHRDIKPANVFITATGVVK in human Huh-7 cells at 1 uM by KiNativ Profiling analysis relative to control. Conditions: condition cancer.
The target of test [16] is Tyrosine-protein kinase ABL2 (Homo sapiens, UniProt P42684). The experiment in a line: Inhibition of ABL2 (unknown origin) at 10 uM by Ambit Kinomescan binding assay relative to control; values are per cent of control.

Active and inactive are the calls of the source. No cut-off for these calls is given here.

Chain of Serine/threonine-protein kinase PAK 6 (Homo sapiens) (Q9NQU5 whole entry, looked up, the tested form may be a part): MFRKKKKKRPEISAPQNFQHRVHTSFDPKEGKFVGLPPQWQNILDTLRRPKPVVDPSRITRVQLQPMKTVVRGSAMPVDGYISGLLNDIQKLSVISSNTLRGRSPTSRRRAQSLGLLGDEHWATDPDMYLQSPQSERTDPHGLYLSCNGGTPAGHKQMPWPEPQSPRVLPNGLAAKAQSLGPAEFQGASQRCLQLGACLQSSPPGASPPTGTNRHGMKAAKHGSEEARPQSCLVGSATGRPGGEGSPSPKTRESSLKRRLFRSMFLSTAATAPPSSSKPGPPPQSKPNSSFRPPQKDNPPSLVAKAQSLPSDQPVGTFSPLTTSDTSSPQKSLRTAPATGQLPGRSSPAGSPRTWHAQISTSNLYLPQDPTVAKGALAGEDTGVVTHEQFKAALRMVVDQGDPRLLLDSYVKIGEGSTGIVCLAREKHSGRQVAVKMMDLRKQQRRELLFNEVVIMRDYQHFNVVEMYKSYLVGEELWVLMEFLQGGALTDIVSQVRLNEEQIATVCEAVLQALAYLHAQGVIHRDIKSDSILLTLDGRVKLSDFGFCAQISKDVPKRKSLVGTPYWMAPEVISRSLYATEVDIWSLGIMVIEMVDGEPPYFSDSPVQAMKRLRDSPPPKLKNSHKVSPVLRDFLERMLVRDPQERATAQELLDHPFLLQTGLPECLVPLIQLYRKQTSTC
Chain of Serine/threonine-protein kinase 26 (Homo sapiens) (Q9P289 2-416 limits assumed): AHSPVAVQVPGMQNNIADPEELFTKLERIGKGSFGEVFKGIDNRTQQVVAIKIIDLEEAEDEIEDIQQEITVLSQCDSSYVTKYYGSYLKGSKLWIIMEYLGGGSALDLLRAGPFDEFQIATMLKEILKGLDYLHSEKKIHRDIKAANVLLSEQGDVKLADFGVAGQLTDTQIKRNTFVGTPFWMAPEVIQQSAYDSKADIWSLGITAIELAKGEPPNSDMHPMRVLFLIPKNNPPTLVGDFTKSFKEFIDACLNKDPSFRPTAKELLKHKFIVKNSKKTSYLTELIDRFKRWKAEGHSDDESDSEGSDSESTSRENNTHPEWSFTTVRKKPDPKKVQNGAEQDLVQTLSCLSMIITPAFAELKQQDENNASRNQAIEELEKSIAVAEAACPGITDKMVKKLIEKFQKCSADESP

For the molecule `CNc1cc(Oc2cc(C(=O)Nc3cc(N4CCN(C)CC4)cc(C(F)(F)F)c3)ccc2C)ncn1`, the inhibition (in general, the relative decrease from the control value, in per cent) in test [1] came out at 11.6%.

For the molecule `CCN1CCN(Cc2ccc(NC(=O)c3ccc(C)c(/C=C/c4cnc5[nH]ccc5c4OC)c3)cc2C(F)(F)F)CC1`, the inhibition in test [2] was found to be 0%; in [3] it was 100%; in test [4], 7.8%; in test [5] it was 11.4%. In addition, the residual activity is 0.2% in test [6] and 100% in [7].

With `CCN1CCN(Cc2ccc(NC(=O)c3ccc(C)c(Oc4ccnc5[nH]ccc45)c3)cc2C(F)(F)F)CC1`, the inhibition entry in test [8], in test [10], in [11] and in test [12] was “inactive” each time. Further, the figures for the inhibition in test [9], in test [13] and in test [14] were 0%, 32.3% and -9.4%, respectively. For the same molecule, the inhibition at 1 µM in test [15] is -15.7%. The % of control in test [16] was 0.6%.
